What was measured:
[1] = system: human norovirus GII.4 (K2017 strain); experiment: Human norovirus proliferation inhibition in 2D organoid after agent pre-treatment, GII.4 strain; assay type: cell-based; conditions: GII.4, 3 days treatment before infection
Method: Feces of a human norovirus-infected patent contains a large amount of infectious human norovirus. Thus, the feces of a human norovirus-infected patient is suspended in distilled water or the like to a final concentration of about 10%, to thereby prepare a “10% feces suspension.” The 10% feces suspension is about 10-fold diluted with an ENRA medium. The diluted suspension is added to each of the aforementioned wells having the 2D organoid (5 μL/well) and subjected to incubation for about 3 hours, to thereby proliferate human norovirus. As a result of verification, it has been confirmed that human norovirus proliferates to about 100,000 times the initial count through the culture system employing the 2D organoid.
In the Example, there were tested strains of human norovirus obtained from feces of human norovirus infection patients through the aforementioned procedure and stocked before the test. Specifically, three strains belonging to the genetic group 2 (GII) which accounts for 80 to 90% of the infected patients were selected as test targets. The isolated strain lineages included in GII (FIG. 1) were GII. 6 belonging to “Lineage 1,” GII. 3 belonging to “Lineage 2,” and GII.4 belonging to “Lineage 3” (GII. 6: K2017 strain, GII.3: TCH2004 strain, and GII. 4: K2017 strain).
The effect of 2fp-fucose treatment on proliferation of human norovirus was investigated for each lineage of norovirus. Specifically, after the 2fp-fucose treatment for 3 days, the 2D organoid was infected with each of the aforementioned norovirus strains GII.6, GII. 3, and GII. 4, and the viral proliferation amount was determined on days 3 and 6 after infection (FIG. 4).
Next, there was investigated the effect of the period of time (the number of days) of the 2fp-fucose treatment performed in advance on the anti-human norovirus action of the fucose analog. Specifically, the strain GII. 4 was treated with 2fp-fucose (several concentrations) for 1 to 4 days. […] However, in the group of 3-day treatment, the proliferation inhibition effect was observed by the 200 μM treatment with a certain range of variation in effectiveness. In the group of 4-day treatment, the proliferation inhibition effect was initially observed by 8 μM treatment, and the effect increased in a concentration-dependent manner to a 2fp-fucose concentration of 200 μM. […] Thus, the highest proliferation inhibition effect was obtained in the 2D organoid system through a 200 μM treatment for 3 to 4 days. The test was repeatedly performed three times. Error bars denote SEMs.
The 2D organoid was treated with an agent for 3 days. The tested agents were (a) 2fp-fucose (200 μM), (b) Sofosbuvir (1 μM), (c) Lamivudine (1 μM), (d) Ribavirin (400 μM), and (e) Mizoribine (100 μM). Subsequently, the thus-treated 2D organoid was infected with human norovirus (the norovirus strain GII.4), and the proliferation inhibition effect was determined (FIG. 6). The test was repeatedly performed three times. Error bars denote SEMs.

[2] = system: human norovirus GII. 4 strain; experiment: Human norovirus proliferation inhibition test by use of 6a-fucose (real-time RT-PCR of genomic RNA), GII.4 strain; assay type: cell-based
Method: (§1) To a medium containing the 2D organoid, 6a-fucose was added so as to adjust a final concentration of 0 μM, 1.6 μM, 8 μM, 40 μM, and 200 μM, and culturing for differentiation induction was performed for 4 days. The culturing was performed by means of a 96-well plate in which 3 wells were dedicated for each 6a-fucose addition system, and one test plate was used for one human norovirus tested. The human norovirus tested included the GII.4 strain and GII. 6 strain. The culturing was performed in a CO2 gas incubator controlled at 37° C.
(§2) On day 4 of culturing, the medium was removed, and the plate was washed with a new medium. Subsequently, each human norovirus was added at 10^5 RNA copies to the plate for infection, and static culturing was performed for 3 hours. After completion of the infection treatment, human norovirus remaining in the medium was removed together with the medium, and the plate was washed thrice with a new medium.
(§3) After washing, 6a-fucose was added again to the new medium so as to adjust a final concentration to 0 μM, 1.6 μM, 8 μM, 40 μM, and 200 μM, and culturing was performed for 6 days.
(§4) A portion (10 μL) of the culture medium was collected from each well at three timings: (a) immediately after the addition to the new medium, (b) on day 3, and (c) on day 6. The sample was centrifuged at 10,000 g for 10 minutes, and the cell precipitate was removed. The human norovirus genomic RNA contained in the supernatant (1 μL) was quantitated through real-time RT-PCR.
(§5) In FIG. 13, the effects of use of 6a-fucose are shown with respect to (a) human norovirus GII. 4 strain and (b) human norovirus GII. 6 strain. The vertical axis in FIG. 13 represents the copy number of human norovirus genomic RNA (RNA titer), and the numeral under each bar graph represents the time of culturing from the start of the test.

[3] = system: human norovirus GII. 6 strain; experiment: Human norovirus proliferation inhibition test by use of 6a-fucose (real-time RT-PCR of genomic RNA), GII.6 strain; assay type: cell-based
Method: as §1, §2, §3, §4, §5

2D organoid = experiment: Cytotoxicity of 6a-fucose to cultured 2D organoid (mono-layer sheet still alive); assay type: cell-based, human; conditions: 6a-fucose 1.6 to 200 μM, any of the tested concentrations
Method: as §1

[4] = system: human norovirus GII. 4 strain or GII. 6 strain; experiment: Effect of treatment with 2fp-fucose or 6a-fucose after differentiation, on infection and reinfection (RNA titer by real-time RT-PCR); assay type: cell-based; conditions: fucose analog 200 μM added on day 5, infection on day (5+2), 3 days culturing
Method: (a) The 2D organoid was disseminated to a 96-well plate. After completion of differentiation induction, two fucose analogs (i.e., 2fp-fucose and 6a-fucose) were each added on day 5 to a concentration of 200 μM, to thereby provide addition groups. The results are shown in FIG. 14(a) and FIG. 14(b), respectively. A non-addition group (untreated group) was also provided. Subsequently, the medium was removed from the wells on day (5+2), and the plate was washed. Then, infection with the GII. 4 strain or the GII. 6 strain was performed.
After the infection treatment, the human norovirus remaining in the medium was removed together with the medium, and the plate was washed thrice with a new medium. After washing, the aforementioned active ingredients were each added to the new medium to a concentration of 200 μM (addition groups), and no addition was performed with respect to the untreated (i.e., non-addition) group. Culturing was performed for 3 days. A portion (10 μL) of the medium was sampled from each well, and the samples were centrifuged at 10,000 g for 10 minutes, to thereby remove cell precipitates. The amount of human norovirus genomic RNA in the supernatant (1 μL) was determined through real-time RT-PCR.
In the test system, the effect of the anti-norovirus agent of the present invention provided after human norovirus infection was estimated on the basis of the following study. Specifically, among the fucose analog-treated 2D organoid cells, the living cells on growth day 3 (i.e., most of them were not infected with human norovirus, by virtue of the effect of the fucose analog) were subjected to a secondary infection operation (i.e., reinfection). The effect of the fucose analog on the reinfection was investigated.
In a specific procedure, the addition groups were prepared through the same procedure as employed in (a) above. The primarily infected cells were cultured in the presence of the fucose analog (200 μM) for 3 days, and the medium was removed from each culture system. After completion of washing, the cells were infected again with human norovirus, and then the virus was removed together with the medium. After completion of the next washing, a medium containing the fucose analog (200 μM) (represented by Reinf+2f-fuc or Reinf+6a-fuc), or a fucose analog-free medium (represented by Reinf−2f-fuc or Reinf−6a-fuc) was added thereto, and culturing was performed for further 3 days. Similar to the above case, the amount of human norovirus released to the supernatant was determined as an RNA titer. In the graphs, the two bars on the right side correspond to (Reinf+2f-fuc and Reinf+6a-fuc) or (Reinf−2f-fuc and Reinf−6a-fuc).

In the case of `NC(=O)c1ncn([C@@H]2O[C@H](CO)[C@@H](O)[C@H]2O)n1` [Ribavirin, reference compound], the “viral RNA titer from day 0 to day 7 (proliferation inhibition effect)” value ([1]; agent 400 μM) is reported as “no effect of inhibiting proliferation of human norovirus”.
`CC(C)OC(=O)[C@H](C)N[P@](=O)(OC[C@H]1O[C@@H](n2ccc(=O)[nH]c2=O)[C@](C)(F)[C@@H]1O)Oc1ccccc1` [Sofosbuvir, reference compound] was tested, and the “viral RNA titer from day 0 to day 7 (proliferation inhibition effect)” value ([1]; agent 1 μM) was “no effect of inhibiting proliferation of human norovirus”.
`NC(=O)c1ncn([C@@H]2O[C@H](CO)[C@@H](O)[C@H]2O)c1O` [Mizoribine, reference compound] was tested, and the “viral RNA titer from day 0 to day 7 (proliferation inhibition effect)” value ([1]; agent 100 μM) was “no effect of inhibiting proliferation of human norovirus”.
`C#C[C@@H]1OC(OC(C)=O)[C@@H](OC(C)=O)[C@H](OC(C)=O)[C@@H]1OC(C)=O` (stereo partly drawn) [6a-fucose, 1,2,3,4-tetra-O-acetyl-6,7-dideoxy-L-galacto-hept-6-ynopyranose] was tested, and the “rise in RNA titer relative to the titer at the start of culturing” value ([2]; 6a-fucose 8 μM) was “about 10 times”, the “rise in RNA titer” value ([2]; 6a-fucose 40 μM, day 6) was “no substantial increase in RNA titer was observed” and the “rise in RNA titer” value ([2]; 6a-fucose 200 μM) was “completely inhibited”. The “6a-fucose concentration at which the proliferation inhibition effect emerged” value ([2]; 4 days pre-treatment, 6 days culturing after infection) was 1.6 µM, the “RNA titer relative to the titer at the start of culturing” value ([2]; each 6a-fucose treatment group (any concentration), culture day 6) was ≤ 100 times and the proliferation inhibition effect ([3]; 6a-fucose 1.6 μM) was “not recognized”. The “human norovirus genome proliferation” value ([3]; 6a-fucose 8 μM, culture days 3 and 6) was “actively suppressed”, the “human norovirus genome proliferation” value ([3]; 6a-fucose 40 μM) was “completely inhibited” and the “cytotoxicity to cultured cells (2D organoid)” value (2D organoid) was “no cytotoxicity attributed to addition of 6a-fucose was observed”. For the same compound, the “rise in RNA titer (proliferation of human norovirus) in the addition group” value [4] was “no rise in RNA titer” and the “rise in RNA titer of the untreated group with respect to the administration system” value [4] was ≥ 150 fold.

— patent US20240390404A1, “ANTI-HUMAN NOROVIRUS AGENT” (KEIO UNIVERSITY, priority 2018, published 2024)
